Experimental data published in US9956220B2, “Imidazo-pyridazine derivatives as casein kinase 1 δ/ϵ inhibitors” (Bristol-Myers Squibb Company, priority 2014, dated 2018).

Assays:
[1] = biological target: CK1ϵ (Homo sapiens, UniProt P49674); assay: CK1ϵ kinase assay (Caliper LABCHIP electrophoretic separation of fluoresceinated peptide substrate and product); format: biochemical; conditions: 200 pM CK1ϵ, 50 μM ATP, 1.5 μM peptide substrate, 22 hours at room temperature; read-out: CK1ε (IC50)
[2] = biological target: CK1δ (Homo sapiens, UniProt P48730); assay: CK1δ kinase assay (Caliper LABCHIP electrophoretic separation of fluoresceinated peptide substrate and product); format: biochemical; conditions: 200 pM CK1δ, 50 μM ATP, 1.5 μM peptide substrate, 22 hours at room temperature
Sequence of CK1δ (P48730 whole entry): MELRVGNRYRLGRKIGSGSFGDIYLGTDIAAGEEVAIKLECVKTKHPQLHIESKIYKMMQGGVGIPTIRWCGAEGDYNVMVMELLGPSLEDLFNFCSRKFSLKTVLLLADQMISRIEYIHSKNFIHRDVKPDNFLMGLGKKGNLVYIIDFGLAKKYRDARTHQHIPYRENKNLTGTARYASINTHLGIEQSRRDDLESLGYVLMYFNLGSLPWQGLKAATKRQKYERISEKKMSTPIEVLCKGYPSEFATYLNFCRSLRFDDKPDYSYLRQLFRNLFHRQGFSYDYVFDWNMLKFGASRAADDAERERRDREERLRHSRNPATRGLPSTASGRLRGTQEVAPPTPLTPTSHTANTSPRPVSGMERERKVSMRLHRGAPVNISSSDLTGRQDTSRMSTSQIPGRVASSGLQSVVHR

Sequence of CK1ϵ (P49674 whole entry): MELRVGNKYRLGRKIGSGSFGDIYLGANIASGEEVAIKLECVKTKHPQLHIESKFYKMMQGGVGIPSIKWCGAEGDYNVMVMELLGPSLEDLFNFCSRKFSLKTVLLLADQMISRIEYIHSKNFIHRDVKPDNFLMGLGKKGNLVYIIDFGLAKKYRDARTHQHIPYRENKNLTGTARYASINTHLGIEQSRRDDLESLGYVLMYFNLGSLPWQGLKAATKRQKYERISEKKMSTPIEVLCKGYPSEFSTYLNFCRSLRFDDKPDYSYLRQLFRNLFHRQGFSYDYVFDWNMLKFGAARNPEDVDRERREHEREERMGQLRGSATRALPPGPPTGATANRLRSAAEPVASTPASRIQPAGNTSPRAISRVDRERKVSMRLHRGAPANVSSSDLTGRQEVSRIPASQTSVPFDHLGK

Compound	IC50 [1] [nM]	IC50 [2] [nM]
O=C(Nc1cn2nc(-c3c(-c4ccc(F)cc4)nn4c3CN(C(=O)NC3CC3)CC4)ccc2n1)c1ccnc(F)c1 [Example 46, N-Cyclopropyl-3-(2-(2-fluoroisonicotinamido)imidazo[1,2-b]pyridazin-6-yl)-2-(4-fluorophenyl)-6,7-dihydropyrazolo[1,5-a]pyrazine-5(4H)-carboxamide]	2.5	0.4
O=C(Nc1cn2nc(-c3c(-c4ccc(F)cc4)nn4c3CN(C(=O)Nc3ccc(C(F)(F)F)cc3)CC4)ccc2n1)c1ccnc(F)c1 [Example 47, 3-(2-(2-Fluoroisonicotinamido)imidazo[1,2-b]pyridazin-6-yl)-2-(4-fluorophenyl)-N-(4-(trifluoromethyl)phenyl)-6,7-dihydropyrazolo[1,5-a]pyrazine-5(4H)-carboxamide]	146	12
O=C(Nc1cn2nc(-c3c(-c4ccc(F)cc4)nn4c3CN(C(=O)NCCC(F)(F)F)CC4)ccc2n1)c1ccnc(F)c1 [Example 50, 3-(2-(2-Fluoroisonicotinamido)imidazo[1,2-b]pyridazin-6-yl)-2-(4-fluorophenyl)-N-(3,3,3-trifluoropropyl)-6,7-dihydropyrazolo[1,5-a] pyrazine-5(4H)-carboxamide]	9.3	0.7
O=C(Nc1cn2nc(-c3c(-c4ccc(F)cc4)nn4c3CN(C(=O)NC3(C(F)(F)F)CC3)CC4)ccc2n1)c1ccnc(F)c1 [Example 51, 3-(2-(2-Fluoroisonicotinamido)imidazo[1,2-b]pyridazin-6-yl)-2-(4-fluorophenyl)-N-(1-(trifluoromethyl)cyclopropyl)-6,7-dihydropyrazolo[1,5-a] pyrazine-5(4H)-carboxamide]	12.3	1.5
O=C(Nc1cn2nc(-c3c(-c4ccc(F)cc4)nn4c3COCC4)ccc2n1)c1ccnc(F)c1 [Example 53, 2-Fluoro-N-(6-(2-(4-fluorophenyl)-6,7-dihydro-4H-pyrazolo[5,1-c][1,4]oxazin-3-yl)imidazo[1,2-b]pyridazin-2-yl)isonicotinamide]	4.1	0.4
O=C(Nc1cn2nc(-c3c(-c4ccc(F)cc4)nn4c3COCC4)ccc2n1)c1ccncc1 [Example 54, N-(6-(2-(4-Fluorophenyl)-6,7-dihydro-4H-pyrazolo[5,1-c][1,4]oxazin-3-yl)imidazo[1,2-b]pyridazin-2-yl)isonicotinamide]	2.6	0.3
O=C(Nc1cn2nc(-c3c(-c4ccc(F)cc4)nn4c3COCC4)ccc2n1)c1ccnc(N2CCOCC2)c1 [Example 55, N-(6-(2-(4-Fluorophenyl)-6,7-dihydro-4H-pyrazolo[5,1-c][1,4]oxazin-3-yl)imidazo[1,2-b]pyridazin-2-yl)-2-morpholinoisonicotinamide]	2.4	0.3
O=C(Nc1cn2nc(-c3c(-c4ccc(F)cc4)nn4c3COCC4)ccc2n1)c1cc(F)nc(F)c1 [Example 56, 2,6-Difluoro-N-(6-(2-(4-fluorophenyl)-6,7-dihydro-4H-pyrazolo[5,1-c][1,4]oxazin-3-yl)imidazo[1,2-b]pyridazin-2-yl) isonicotinamide]	4	0.3
O=C(Nc1cn2nc(-c3c(-c4ccc(F)cc4)nn4c3COCC4)ccc2n1)c1ccnc(-c2cccnc2)c1 [Example 57, N-(6-(2-(4-Fluorophenyl)-6,7-dihydro-4H-pyrazolo[5,1-c][1,4]oxazin-3-yl)imidazo[1,2-b]pyridazin-2-yl)-[2,3′-bipyridine]-4-carboxamide]	1.7	0.2
O=C(Nc1cn2nc(-c3c(-c4ccc(F)cc4)nn4c3CCC4)ccc2n1)c1ccnc(F)c1 [Example 65, 2-Fluoro-N-(6-(2-(4-fluorophenyl)-5,6-dihydro-4H-pyrrolo[1,2-b]pyrazol-3-yl)imidazo[1,2-b]pyridazin-2-yl)isonicotinamide]	4.7	0.4

More lines, in order of falling IC50 [1], values ahead:

IC50 [1] [nM]	IC50 [2] [nM]	Compound
154	19.2	O=C(Nc1cn2nc(-c3c(-c4ccc(F)cc4)nn4c3CN(C(=O)NC35CC6CC(CC(C6)C3)C5)CC4)ccc2n1)c1ccnc(F)c1 [Example 45, N-(Adamantan-1-yl)-3-(2-(2-fluoroisonicotinamido)imidazo [1,2-b]pyridazin-6-yl)-2-(4-fluorophenyl)-6,7-dihydropyrazolo[1,5-a]pyrazine-5(4H)-carboxamide]
137	19.5	O=C(Nc1cn2nc(-c3c(-c4ccc(F)cc4)nn4ccccc34)ccc2n1)c1cc(F)nc(F)c1 [Example 61, 2,6-Difluoro-N-(6-(2-(4-fluorophenyl)pyrazolo[1,5-a]pyridin-3-yl)imidazo[1,2-b]pyridazin-2-yl)isonicotinamide]
7.7	0.9	CC1(NC(=O)N2CCn3nc(-c4ccc(F)cc4)c(-c4ccc5nc(NC(=O)c6ccnc(F)c6)cn5n4)c3C2)CC1 [Example 52, 3-(2-(2-Fluoroisonicotinamido)imidazo[1,2-b]pyridazin-6-yl)-2-(4-fluorophenyl)-N-(1-methylcyclopropyl)-6,7-dihydropyrazolo[1,5-a] pyrazine-5(4H)-carboxamide]
7.3	0.7	O=C(Nc1cn2nc(-c3c(-c4ccc(F)cc4)nn4c3CN(C(=O)Nc3ccncc3)CC4)ccc2n1)c1ccnc(F)c1 [Example 49, 3-(2-(2-Fluoroisonicotinamido)imidazo[1,2-b]pyridazin-6-yl)-2-(4-fluorophenyl)-N-(pyridin-4-yl)-6,7-dihydropyrazolo[1,5-a]pyrazine-5(4H)-carboxamide]
5.6	0.4	O=C(Nc1cn2nc(-c3c(-c4ccc(F)cc4)nn4c3CN(C(=O)NCC(F)(F)F)CC4)ccc2n1)c1ccnc(F)c1 [Example 48, 3-(2-(2-Fluoroisonicotinamido)imidazo[1,2-b]pyridazin-6-yl)-2-(4-fluorophenyl)-N-(2,2,2-trifluoroethyl)-6,7-dihydropyrazolo[1,5-a]pyrazine-5(4H)-carboxamide]
3.9	0.5	O=C(Nc1cn2nc(-c3c(-c4ccc(F)cc4)nn4c3CCCC4)ccc2n1)c1cc(F)nc(F)c1 [Example 64, 2,6-Difluoro-N-(6-(2-(4-fluorophenyl)-4,5,6,7-tetrahydropyrazolo[1,5-a]pyridin-3-yl)imidazo[1,2-b]pyridazin-2-yl) isonicotinamide]
2.7	0.2	Nc1cc(C(=O)Nc2cn3nc(-c4c(-c5ccc(F)cc5)nn5c4COCC5)ccc3n2)ccn1 [Example 58, 2-Amino-N-(6-(2-(4-fluorophenyl)-6,7-dihydro-4H-pyrazolo[5,1-c][1,4]oxazin-3-yl)imidazo[1,2-b]pyridazin-2-yl) isonicotinamide]
1.3	0.4	O=C(Nc1cn2nc(-c3c(-c4ccc(F)cc4)nn4c3CCCC4)ccc2n1)c1ccnc(F)c1 [Example 62, 2-Fluoro-N-(6-(2-(4-fluorophenyl)-4,5,6,7-tetrahydropyrazolo[1,5-a]pyridin-3-yl)imidazo[1,2-b]pyridazin-2-yl)isonicotinamide]
1.2	0.3	O=C(Nc1cn2nc(-c3c(-c4ccc(F)cc4)nn4c3CCCC4)ccc2n1)c1ccncc1 [Example 63, N-(6-(2-(4-Fluorophenyl)-4,5,6,7-tetrahydropyrazolo[1,5-a]pyridin-3-yl)imidazo[1,2-b]pyridazin-2-yl) isonicotinamide]
